This passage reports IC50 results from patent US20240124442A1, “TRICYCLIC-AMIDO-BICYCLIC PRMT5 INHIBITORS” (AMGEN INC., priority 2021, published 2024).

One test relates to HCT116 MTAP null cells. The test is described as follows: HCT116 MTAP null cell line proliferation / cell viability (CellTiter-Glo, 6 days). It is filed as cell-based. To be noted: 144 h; HCT116 MTAP null cells, 6 days treatment, CellTiter-Glo cell viability; read-out: HCT-116 MTAP null IC50. An outline of the steps: (§1)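 WT vs MTAP-null HCT116, 6 d drug, CTG readout. 1:3 × 8–9 pts (top 1/10 μM) or 1:2 × 22 pts (top 10/50 μM). IC50 by 4PL or Hill −1 fit.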

The subject of the next test is HCT116 WT cells. The test is described as follows: HCT116 WT (parent) cell line proliferation / cell viability (CellTiter-Glo, 6 days). It is filed as cell-based. To be noted: Homo sapiens, HCT-116, 144 h, 6 days treatment. In short, it runs like this: as §1

For `CN(C(=O)c1cc2c3c(c(N)nc2cc1F)COC3)[C@@H]1COc2cc(Cl)ccc21` (single isomer, unassigned) [Example 347], the IC50 in the test on HCT116 MTAP null cells worked out at 0.086 µM; in the test on HCT116 WT cells, 3.22 µM.
With `CN(C(=O)c1cc2c3c(c(N)nc2cc1F)COC3)[C@H]1COc2cc(Cl)ccc21` (single isomer, unassigned) [Example 348], the IC50 in the test with HCT116 MTAP null cells was 1.9 µM; in the test with HCT116 WT cells, 23.4 µM.
For `CN(C(=O)c1cc2c3c(c(N)nc2cc1F)COC3)[C@@H]1CCc2nc(C(F)(F)F)ccc21` (single isomer, unassigned) [Example 349], in that order: 0.039 µM and 2.24 µM.
For `CN(C(=O)c1cc2c3c(c(N)nc2cc1F)COC3)[C@H]1CCc2nc(C(F)(F)F)ccc21` (single isomer, unassigned) [Example 350], in that order: 3.17 µM and 50 µM.
For `CN(C(=O)c1cc2c3c(c(N)nc2cc1F)COC3)[C@@H]1COc2nc(C(F)(F)F)ccc21` (single isomer, unassigned) [Example 351], in that order: 0.083 µM and 2.85 µM.
As to `CN(C(=O)c1cc2c3c(c(N)nc2cc1F)COC3)[C@H]1COc2nc(C(F)(F)F)ccc21` (single isomer, unassigned) [Example 352], the results for the IC50 in the test with HCT116 MTAP null cells and in the test on HCT116 WT cells were 3.25 µM and 50 µM, respectively.
In the case of `CN(C(=O)c1cc2c3c(c(N)nc2cc1F)COC3)[C@@H]1COc2cc(S(C)(=O)=O)ccc21` (single isomer, unassigned) [Example 353], the IC50 was 0.032 µM in the test with HCT116 MTAP null cells and 1.38 µM in the test with HCT116 WT cells.
As for `CN(C(=O)c1cc2c3c(c(N)nc2cc1F)COC3)[C@H]1COc2cc(S(C)(=O)=O)ccc21` (single isomer, unassigned) [Example 354], the IC50 in the test on HCT116 MTAP null cells worked out at 3.87 µM; with HCT116 WT cells it was 50 µM.
On to `CN(C(=O)c1cc2c3c(c(N)nc2cc1F)COC3)[C@@H]1COc2cc(C(F)(F)F)cc(F)c21` (single isomer, unassigned) [Example 355], for which the results for the IC50 in the test on HCT116 MTAP null cells and with HCT116 WT cells were 0.026 µM and 1.18 µM, respectively.
As to `CN(C(=O)c1cc2c3c(c(N)nc2cc1F)COC3)[C@H]1COc2cc(C(F)(F)F)cc(F)c21` (single isomer, unassigned) [Example 356], the results for the IC50 with HCT116 MTAP null cells and with HCT116 WT cells were 1.04 µM and 11.3 µM, respectively.
For `CN(C(=O)c1cc2c3c(c(N)nc2cc1F)COC3)[C@@H]1COc2cc(S(F)(F)(F)(F)F)ccc21` (single isomer, unassigned) [Example 357], in that order: 0.012 µM and 0.208 µM.
For `CN(C(=O)c1cc2c3c(c(N)nc2cc1F)COC3)[C@H]1COc2cc(S(F)(F)(F)(F)F)ccc21` (single isomer, unassigned) [Example 358], in that order: 1.2 µM and 8.85 µM.
For `C[C@H]1OCc2c1c(N)nc1cc(F)c(C(=O)N(C)[C@@H]3CCc4nc(C(F)(F)F)ccc43)cc21` (single isomer, unassigned) [Example 359], in that order: 0.017 µM and 1.23 µM.
On to `C[C@H]1OCc2c1c(N)nc1cc(F)c(C(=O)N(C)[C@H]3CCc4nc(C(F)(F)F)ccc43)cc21` (single isomer, unassigned) [Example 360], for which the half-inhibitory concentration (IC50) in the test with HCT116 MTAP null cells worked out at 0.81 µM; with HCT116 WT cells, 42.3 µM.
In the case of `CN(C(=O)c1cc2c3c(c(N)nc2cc1Cl)COC3)[C@@H]1COc2cc(C(F)(F)F)ncc21` (single isomer, unassigned) [Example 361], the figures for the IC50 in the test with HCT116 MTAP null cells and in the test on HCT116 WT cells were 0.029 µM and 1.34 µM, respectively.
For `CN(C(=O)c1cc2c3c(c(N)nc2cc1Cl)COC3)[C@H]1COc2cc(C(F)(F)F)ncc21` (single isomer, unassigned) [Example 362], in that order: 0.744 µM and 35.6 µM.
With `CN(C(=O)c1ccc2nc(N)c3cnn(C)c3c2c1)[C@@H]1CCc2nc(C(F)(F)F)ccc21` (single isomer, unassigned) [Example 363], the IC50 with HCT116 MTAP null cells is 0.017 µM; with HCT116 WT cells it was 2.5 µM.
For `CN(C(=O)c1ccc2nc(N)c3cnn(C)c3c2c1)[C@H]1CCc2nc(C(F)(F)F)ccc21` (single isomer, unassigned) [Example 364], in that order: 2.86 µM and 34.9 µM.
For `CCN(C(=O)c1ccc2nc(N)c3cnn(C)c3c2c1)[C@@H]1COc2cc(C(F)(F)F)ccc21` (single isomer, unassigned) [Example 365], in that order: 0.005 µM and 0.212 µM.
Take `CN(C(=O)c1ccc2nc(N)c3cnn(C)c3c2c1)[C@@H]1COc2cc(S(F)(F)(F)(F)F)ccc21` (single isomer, unassigned) [Example 366]: the IC50 in the test on HCT116 MTAP null cells stood at 0.006 µM; in the test on HCT116 WT cells it was 0.155 µM.
For `CN(C(=O)c1ccc2nc(N)c3cnn(C)c3c2c1)[C@H]1COc2cc(S(F)(F)(F)(F)F)ccc21` (single isomer, unassigned) [Example 367], in that order: 0.485 µM and 5.27 µM.
Turning to `CN(C(=O)c1ccc2nc(N)c3cnn(C)c3c2c1)[C@@H]1CCc2cc(Br)ccc21` (single isomer, unassigned) [Example 368], the IC50 in the test with HCT116 MTAP null cells is 0.037 µM; with HCT116 WT cells it was 2.53 µM.
For `CN(C(=O)c1ccc2nc(N)c3cnn(C)c3c2c1)[C@H]1CCc2cc(Br)ccc21` (single isomer, unassigned) [Example 369], in that order: 0.519 µM and 4.13 µM.
For `CN(C(=O)c1ccc2nc(N)c3cnn(C)c3c2c1)[C@@H]1CCc2nc(Br)ccc21` (single isomer, unassigned) [Example 370], in that order: 0.029 µM and 1.8 µM.
For `CN(C(=O)c1cc2c(cn1)nc(N)c1cnn(C)c12)[C@@H]1CCc2nc(C(F)(F)F)ccc21` (single isomer, unassigned) [Example 371], in that order: 0.027 µM and 1.62 µM.
On to `CCN(C(=O)c1cc2c(cn1)nc(N)c1cnn(C)c12)[C@@H]1COc2cc(C(F)(F)F)ccc21` (single isomer, unassigned) [Example 372], for which the 50% inhibitory concentration (IC50) in the test on HCT116 MTAP null cells amounted to 0.01 µM; with HCT116 WT cells, 0.114 µM.
For `CN(C(=O)c1cc2c(cc1F)nc(N)c1cnn(C)c12)[C@@H]1COc2cc(C#N)ccc21` (single isomer, unassigned) [Example 373], in that order: 0.004 µM and 0.235 µM.
For `CN(C(=O)c1cc2c(cc1F)nc(N)c1cnn(C)c12)[C@H]1COc2cc(C#N)ccc21` (single isomer, unassigned) [Example 374], in that order: 0.272 µM and 22.4 µM.
Consider `CN(C(=O)c1cc2c(cc1F)nc(N)c1cnn(C)c12)[C@@H]1CCc2nc(C(F)(F)F)ccc21` (single isomer, unassigned) [Example 375], for which the IC50 with HCT116 MTAP null cells is 0.009 µM; in the test on HCT116 WT cells, 0.568 µM.
For `CN(C(=O)c1cc2c(cc1F)nc(N)c1cnn(C)c12)[C@H]1CCc2nc(C(F)(F)F)ccc21` (single isomer, unassigned) [Example 376], in that order: 0.882 µM and 12.8 µM.
For `CN(C(=O)c1cc2c(cc1F)nc(N)c1cnn(C)c12)[C@@H]1COc2nc(C(F)(F)F)ccc21` (single isomer, unassigned) [Example 377], in that order: 0.01 µM and 0.595 µM.
For `CN(C(=O)c1cc2c(cc1F)nc(N)c1cnn(C)c12)[C@@H]1COc2cc(S(C)(=O)=O)ccc21` (single isomer, unassigned) [Example 378], in that order: 0.01 µM and 0.239 µM.
With `CN(C(=O)c1cc2c(cc1F)nc(N)c1cnn(C)c12)[C@H]1COc2cc(S(C)(=O)=O)ccc21` (single isomer, unassigned) [Example 379], the IC50 came out at 0.49 µM in the test on HCT116 MTAP null cells and 13.5 µM in the test with HCT116 WT cells.
For `CN(C(=O)c1cc2c(cc1F)nc(N)c1cnn(C)c12)[C@@H]1COc2cc(C(F)(F)F)cc(F)c21` (single isomer, unassigned) [Example 380], in that order: 0.023 µM and 1.54 µM.
For `CN(C(=O)c1cc2c(cc1F)nc(N)c1cnn(C)c12)[C@H]1COc2cc(C(F)(F)F)cc(F)c21` (single isomer, unassigned) [Example 381], in that order: 0.195 µM and 11.1 µM.
For `CN(C(=O)c1cc2c(cc1F)nc(N)c1cnn(C)c12)[C@@H]1COc2cc(S(F)(F)(F)(F)F)ccc21` (single isomer, unassigned) [Example 382], in that order: 0.004 µM and 0.063 µM.
Consider `CN(C(=O)c1cc2c(cc1F)nc(N)c1cnn(C)c12)[C@H]1COc2cc(S(F)(F)(F)(F)F)ccc21` (single isomer, unassigned) [Example 383], for which the IC50 in the test on HCT116 MTAP null cells was 0.38 µM; in the test on HCT116 WT cells, 5.66 µM.
For `CN(C(=O)c1cc2c(cc1Cl)nc(N)c1cnn(C)c12)[C@]1(C)CCc2nc(C(F)(F)F)ccc21` (single isomer, unassigned) [Example 384], the figures for the IC50 in the test with HCT116 MTAP null cells and with HCT116 WT cells were 0.869 µM and 17.2 µM, respectively.
Regarding `CN(C(=O)c1cc2c(cc1Cl)nc(N)c1cnn(C)c12)[C@@H]1CCc2nc(C(F)(F)F)ccc21` (single isomer, unassigned) [Example 385], the IC50 is 0.007 µM in the test with HCT116 MTAP null cells and 0.297 µM in the test on HCT116 WT cells.
For `CN(C(=O)c1cc2c(cc1Cl)nc(N)c1cnn(C)c12)[C@H]1CCc2nc(C(F)(F)F)ccc21` (single isomer, unassigned) [Example 386], in that order: 0.552 µM and 13.6 µM.
For `CN(C(=O)c1cc2c(cc1Cl)nc(N)c1cnn(C)c12)[C@@H]1COc2nc(C(F)(F)F)ccc21` (single isomer, unassigned) [Example 387], in that order: 0.005 µM and 0.136 µM.
